One assay has as its target T1, GFP-PPARβ LBD (Homo sapiens, UniProt Q03181).
T1 construct: incubated with recombinant GFP-PPARα LBD and GFP-PPARβ LBD proteins
T1 sequence (Q03181 211-439 limits assumed): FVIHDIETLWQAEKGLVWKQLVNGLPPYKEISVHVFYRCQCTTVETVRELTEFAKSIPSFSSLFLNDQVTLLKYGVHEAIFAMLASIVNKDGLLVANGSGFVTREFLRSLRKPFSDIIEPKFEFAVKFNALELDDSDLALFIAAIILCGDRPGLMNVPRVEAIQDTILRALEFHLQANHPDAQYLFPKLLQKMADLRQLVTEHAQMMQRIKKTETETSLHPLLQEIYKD
Description: GFP-affinity purification of cerebellar lysate with GFP-PPARβ LBD, then EI-GCMS. Format: binding. The conditions noted are these: PPARβ pulled-down cerebellar lysate.

A further assay concerns the target T2, GFP-PPARα LBD (Homo sapiens, UniProt Q07869).
T2 construct: incubated with recombinant GFP-PPARα LBD and GFP-PPARβ LBD proteins
T2 sequence (Q07869 239-466 limits assumed): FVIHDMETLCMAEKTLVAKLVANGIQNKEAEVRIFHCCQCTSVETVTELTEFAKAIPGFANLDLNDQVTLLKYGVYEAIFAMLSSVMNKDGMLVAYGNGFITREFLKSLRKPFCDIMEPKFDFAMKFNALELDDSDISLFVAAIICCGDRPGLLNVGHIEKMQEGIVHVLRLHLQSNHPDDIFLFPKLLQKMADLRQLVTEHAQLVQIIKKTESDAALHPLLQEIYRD
Put plainly: GFP-affinity purification of cerebellar lysate with GFP-PPARα LBD, then EI-GCMS. Format: binding. The conditions noted are these: PPARα pulled-down cerebellar lysate. From the text:
Identification of unique cerebellar ligands of PPARβ: PPARβ regulates the expression of myelin genes in vitro in cultured oligodendrocytes (19). However, it is not known if PPARβ regulates the expression of these genes in cerebellum, one of the heavily myelinated regions of the brain. To test the expression of myelin proteins, first we performed dual immunofluorescence analyses of myelin marker MBP together with PPARβ in the cerebellar tissue of wild-type (n=3), Pparb-null (n=3) and Ppara-null (n=3) mice. […] Moreover, DAB immunostaining of MBP and immunoblot analyses of other myelin genes including PLP and MOG have corroborated that PPARβ indeed is involved in the expression of myelin genes in cerebellum. […] To test that, we performed a GFP-based affinity purification procedure (25,29) in which cerebellar lysate of wild-type cerebellum was incubated with recombinant GFP-PPARα LBD and GFP-PPARβ LBD proteins, then passed through GFP column, eluted, fractionated with chloroform-methanol procedure, and finally analyzed for small molecules in the chloroform fraction with electron ionization gas chromatography (EI-GCMS) method as described elsewhere (29). […] Accordingly, we detected two matching bands of both GFP-PPARαLBD and GFP-PPARβLBD, both having mol. wt. of 64 kDa, negating the possibility of unequal loading of sample in MS column. […]

The target in another assay is T3, PPARβ LBD (Homo sapiens, UniProt Q03181).
T3 sequence (Q03181 211-439 limits assumed): T1 sequence (Q03181 211-439 limits assumed)
Description: TR-FRET (Lanthascreen PPAR-β coactivator assay). (In general: In TR-FRET formats the signal depends on donor and acceptor labels being close together.)

The target of the next assay is T4, GFPflpparβ (Mus musculus, UniProt P35396).
T4 construct: host or cells: Pparb-null mouse primary OPCs (lentiviral transduction)
T4 sequence (P35396 1-440): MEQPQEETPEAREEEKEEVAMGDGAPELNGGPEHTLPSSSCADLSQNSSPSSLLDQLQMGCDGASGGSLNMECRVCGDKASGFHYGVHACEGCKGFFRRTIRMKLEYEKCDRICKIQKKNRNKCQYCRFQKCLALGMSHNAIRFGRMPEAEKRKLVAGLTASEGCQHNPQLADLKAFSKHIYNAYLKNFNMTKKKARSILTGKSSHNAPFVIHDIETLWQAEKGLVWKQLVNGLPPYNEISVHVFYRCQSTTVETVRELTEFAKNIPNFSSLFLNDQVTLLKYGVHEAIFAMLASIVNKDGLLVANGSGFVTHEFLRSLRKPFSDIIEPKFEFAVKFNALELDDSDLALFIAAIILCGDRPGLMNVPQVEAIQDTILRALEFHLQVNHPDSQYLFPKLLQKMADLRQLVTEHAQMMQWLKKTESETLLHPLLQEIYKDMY
Description: GFP-affinity purification and GCMS of Pparb-null OPCs transduced with GFPflpparβ. The format is binding. From the text:
Therefore, next, we wanted to confirm these interactions in vitro in a cell-bound system. To test that, Pparb-null mouse primary OPCs were isolated from P1 murine neonates, infected with viral particles of GFP, GFPflpparb, GFPV304Mpparb, GFPH412Lpparb constructs for 48 hrs. After that, OPCs were homogenized, passed through the GFP-affinity column, eluted, fractionated with chloroform-methanol, and finally analyzed with GCMS to quantify these ligands. […] Throughout these analyses, we used dodecane as an internal standard.
Sample preparation: After treatment, mouse primary OPCs were homogenized in ice-cold nondetergent hypotonic buffer [10 mM HEPES (pH 7.9), 1.5 mM MgCl2, 10 mM KCl, 100 mM DTT, protease and phosphatase inhibitor cocktail]. After 10 min of additional incubation in the hypotonic buffer, the homogenate was centrifuged at 8,000 g at 4° C. for 10 min. […] The organic phase was collected, evaporated in the speedvac, reconstituted with 30 μL chloroform, and finally analyzed with GCMS. […] After that, the eluate was collected from the column with 5M NaCl solution, concentrated with PD-10 desalting column and analyzed for GCMS.

Assay [1] relates to mouse primary OPCs. Put plainly: Myelination of OPCs on polycaprolactone nanofiber matrix (MBP staining). The format is cell-based. The conditions noted are these: 1 μM DBB, 0.5 μM DBP, 0.5 μM MePA. The protocol:
(§1) FIG. 1A-1T. The role of DBB, DBP and MePA in the differentiation of OPC into oligodendrocytes and myelination. […] Briefly, mouse primary OPCs were treated with different concentrations of molecules for 1 hr, lysed and measured for DNA probe binding activity of PPARβ. […] Benzene was included as negative control. **p<0.01 vs. control for PLP, MOG, MBP, and CNPase. Results are mean±SD of three independent experiments. (FIG. 1G) Immunoblot followed by (FIG. 1H) relative densitometric analyses of PLP and MBP in mouse primary OPCs treated with increasing concentrations of DBB for 18 hrs. Band intensity was measured with image J software and then normalized with respective actin band. *p<0.05 (=0.041) vs. PLP control and *p<0.05 (=0.026) vs. MBP control. […] (N) Mean fluorescence intensity (MFI) of MBP was measured from total 15 cells per group with three cells from 5 different images per group. […] (FIG. 1Q) Mean fluorescence intensity (MFI) of MBP was measured from total 15 cells per group with three cells from 5 different images per group. […] (FIG. 1T) Numbers of MBP-ir cells of different treatment groups were counted per sq.mm of nanofiber matrix and presented as a histogram. […]
The essential role of PPARβ in DBB-, DBP- and MePa-mediated differentiation of OPCs to oligodendrocytes and myelination. […] After that, PPRE-luciferase activity was assessed. […]

Assay [2] has as its system mouse primary OPCs. Put plainly: Double immunofluorescence (NG2/MBP, A2B5/PLP): differentiation of OPCs to oligodendrocytes. The format is cell-based. The settings on record: 1 μM DBB, 0.5 μM DBP, 0.5 μM MePA, 24 hrs. As to the method:
as §1
DBB, DBP and MePA stimulate the differentiation of OPC to oligodendrocytes and promote myelination. […] After that, cells were lysed and assessed for PPRE-luciferase activity. […]

The mark [3] stands for this setting: adjusted to internal standard peak.

Description for GFP-PPARβ LBD: To test that, we performed a GFP-based affinity purification procedure (25,29) in which cerebellar lysate of wild-type cerebellum was incubated with recombinant GFP-PPARα LBD and GFP-PPARβ LBD proteins, then passed through GFP column, eluted, fractionated with chloroform-methanol procedure, and finally analyzed for small molecules in the chloroform fraction with electron ionization gas chromatography (EI-GCMS) method as described elsewhere (29). […] A part of the eluted fraction was electrophoresed and stained with Coomassie blue to nullify the loading error of GFP-PPARαLBD and GFP-PPARβ LBD used for affinity purification.
GCMS analyses: Ligand detection: A JEOL GCMate II (JEOL USA, Peabody Mass.) mass spectrometer was used in ligand detection experiments. The gas chromatograph (GC) was an Agilent 6890Plus (Wilmington Del.) equipped with a G1513A auto-injector with 100 vial sample tray connected to a G1512A controller. The gas chromatography column was a fused silica capillary column with a nonpolar 5% phenyl 95% dimethylpolysiloxane phase (Agilent HP-5 ms), 30 meters long, 0.25 mm internal diameter, 0.25 μm film thickness. The carrier gas was Helium (99.9995% Research Grade) run through a STG triple filter (Restek Corp.) at a constant flow rate 1.1 mL/min. […]

For orientation: EC50 means the midpoint of the concentration-response curve. Higher therefore signals weaker potency. For `CCCCCCCCCCCCCCCC(=O)OC` [MePA, Methyl palmitate], the “% RA” value on GFP-PPARβ LBD was found to be 40.678%; at GFP-PPARα LBD it was 0%. Also, the Relative abundance is reported as 0.4068 at GFP-PPARβ LBD (setting [3]) and 0 on GFP-PPARα LBD (setting [3]). The compound further came in with an EC50 on PPARβ LBD of 0.072 µM. Also, at GFPflpparβ (ligand peak area divided by dodecane peak), the “Adjusted Peak Area” value is 0.0108. Moreover, at GFPflpparβ (relative abundance), the RA was 1. For the same compound, the “MBP-ir cell bodies per sq.mm of nanofiber matrix (maturation of oligodendrocytes)” value in the assay with mouse primary OPCs [1] is recorded as “stimulated the maturation of oligodendrocytes”. For the same compound, the “myelin formation on nanofibers” value in the assay with mouse primary OPCs [1] (24 hrs) is listed as “promote myelin formation”. In addition, in the assay on mouse primary OPCs [2], the “differentiation of OPCs into oligodendrocytes” value is given as “stimulate the differentiation of OPCs into oligodendrocytes”.
